Assay [1] deals with ecDNA+ FGFR2 amplified SNU-16 CDX tumor model. The experiment in a line: Anti-tumor and PD activity in ecDNA+ FGFR2 amplified SNU-16 CDX model, first study. It counts as in vivo, female SCID beige mice. From the text: (§1) Tumor volume (mm^3) data are shown as mean z SEM for each treatment group. […] PO: orally, mpk: mg/kg, QD: once per day, Q2D: once every other day.
For assay [2] the test system is unchanged. In words: Durability of anti-tumor response in SNU-16 CDX model, subsequent study. The following applies: single agents vs vehicle: Compound 1 50 mg/kg PO Q2D, infigratinib 15 mg/kg PO QD. It counts as in vivo, Female BALB/c nude mice.
Description: as §1

The subject of assay [3] is ecDNA+ CDK4 amplified SJSA-1 CDX tumor model. The experiment in a line: Anti-tumor activity in ecDNA+ CDK4 amplified osteosarcoma SJSA-1 CDX model. It counts as in vivo, Female Hsd:Athymic Nude-Foxnlnu mice. The following applies: vs vehicle. From the text: Tumor volume (mm^3) data are shown as mean±SEM for each treatment group. […] PO: orally, QD: once every day, Q2D: once every other day.

`CCN1CCN(c2ccc(Nc3cc(N(C)C(=O)Nc4c(Cl)c(OC)cc(OC)c4Cl)ncn3)cc2)CC1` [infigratinib]: the “mean % ΔTGI” value in assay [1] (Day 12 vs vehicle, single agents: Compound 1 100 mg/kg PO Q2D, infigratinib 15 mg/kg PO QD) is 97.6%; in assay [2] it was 65.4%. The “antitumor activity (in words)” value in assay [1] (infigratinib 15 mg/kg PO QD alone or with Compound 1 PO Q2D) is “tumors resumed growth”. In addition, in assay [1] (tumors treated for 12 days, infigratinib 15 mg/kg PO QD alone or with Compound 1 25, 50, 100 mg/kg PO Q2D), the “tumor FGFR2 gene copy number (qPCR)” value is given as “concomitant increase in FGFR2 gene copy number”.

`CC(=O)c1c(C)c2cnc(Nc3ccc(N4CCNCC4)cn3)nc2n(C2CCCC2)c1=O` [palbociclib]: the “mean % ΔTGI” value in assay [3] (single agent 20 mg/kg PO QD, Study 2 (FIG. 3B)) is 16.9%; in assay [3] (single agent 50 mg/kg PO QD, Study 1 (FIG. 3A)), 78.3%.
